Molecular target: T1, hMAGL (Homo sapiens, UniProt Q99685)
T1 sequence (Q99685 1-303): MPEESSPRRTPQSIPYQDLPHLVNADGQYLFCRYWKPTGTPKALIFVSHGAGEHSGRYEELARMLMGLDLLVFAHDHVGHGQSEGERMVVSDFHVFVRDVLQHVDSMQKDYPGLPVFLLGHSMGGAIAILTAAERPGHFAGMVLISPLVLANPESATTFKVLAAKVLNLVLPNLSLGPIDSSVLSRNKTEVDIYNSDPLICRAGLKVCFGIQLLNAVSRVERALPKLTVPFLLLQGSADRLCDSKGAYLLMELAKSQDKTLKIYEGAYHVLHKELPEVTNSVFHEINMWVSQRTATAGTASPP
Assay: 2-AG assay: MAGL inhibition, hydrolysis of 2-arachidonoylglycerol to arachidonic acid followed by mass spectrometry
Type: biochemical
Procedure, shortened: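 Read-out is LC-MS/MS of arachidonic acid released from 2-arachidonoylglycerol (8 μM final), normalised to d8-arachidonic acid internal standard after acetonitrile quench. Enzyme […] and compound were pre-mixed 15 min, then reacted 30 min, both at RT, in Tris/EDTA buffer with 0.01% Tween-20 and 2.5% DMSO.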

Row | Structure (SMILES) | IC50 [nM]
1 | O=C(N1CC2(CC(Cc3noc(C(F)(F)F)n3)C2)C1)N1CC2(CC(n3cnc(C4(O)CC4)n3)C2)C1 [Example 105] | 14.1
2 | O=C(N1CC2(CC(n3cnc(C4CC4)n3)C2)C1)N1CC2(CN(Cc3cnn(CC(F)(F)F)c3)C2)C1 [Example 110, [6-(3-cyclopropyl-1,2,4-triazol-1-yl)-2-azaspiro[3.3]heptan-2-yl]-[6-[[1-(2,2,2-trifluoroethyl)pyrazol-4-yl]methyl]-2,6-diazaspiro[3.3]heptan-2-yl]methanone] | 328
3 | O=C(N1CC2(CC(n3cnc(C4CC4)n3)C2)C1)N1CC2(CN(Cc3snnc3C3CC3)C2)C1 [Example 90, [6-[(4-cyclopropylthiadiazol-5-yl)methyl]-2,6-diazaspiro[3.3]heptan-2-yl]-[6-(3-cyclopropyl-1,2,4-triazol-1-yl)-2-azaspiro[3.3]heptan-2-yl]methanone] | 223
4 | Cn1ncc(CC2CC3(C2)CN(C(=O)N2CC4(CC(n5cnc(C6(O)CC6)n5)C4)C2)C3)c1C(F)(F)F [Example 1, [6-[3-(1-hydroxycyclopropyl)-1,2,4-triazol-1-yl]-2-azaspiro[3.3]heptan-2-yl]-[6-[[1-methyl-5-(trifluoromethyl)pyrazol-4-yl]methyl]-2-azaspiro[3.3]heptan-2-yl]methanone] | 0.47
5 | Cn1nc(C(F)(F)F)cc1CN1CC2(C1)CN(C(=O)N1CC3(CC(n4cnc(C5CC5)n4)C3)C1)C2 [Example 167, [6-(3-cyclopropyl-1,2,4-triazol-1-yl)-2-azaspiro[3.3]heptan-2-yl]-[6-[[2-methyl-5-(trifluoromethyl)pyrazol-3-yl]methyl]-2,6-diazaspiro[3.3]heptan-2-yl]methanone] | 5.6
6 | O=C(N1CC2(CC(n3cnc(C4CC4)n3)C2)C1)N1CC2(CN(Cc3cc(C(F)(F)F)no3)C2)C1 [Example 184, [6-(3-cyclopropyl-1,2,4-triazol-1-yl)-2-azaspiro[3.3]heptan-2-yl]-[6-[[3-(trifluoromethyl)isoxazol-5-yl]methyl]-2,6-diazaspiro[3.3]heptan-2-yl]methanone] | 6.68
7 | O=C(N1CC2(CC(n3cnc(C(F)(F)F)n3)C2)C1)N1CC2(CN(Cc3cc(C(F)(F)F)ns3)C2)C1 [Example 153, [6-[[3-(trifluoromethyl)isothiazol-5-yl]methyl]-2,6-diazaspiro[3.3]heptan-2-yl]-[6-[3-(trifluoromethyl)-1,2,4-triazol-1-yl]-2-azaspiro[3.3]heptan-2-yl]methanone] | 15.3
8 | O=C(N1CC2(CC(n3cnc(C4(O)CC4)n3)C2)C1)N1CC2(CN(Cc3snnc3C3CCC3)C2)C1 [Example 78, [6-[(4-cyclobutylthiadiazol-5-yl)methyl]-2,6-diazaspiro[3.3]heptan-2-yl]-[6-[3-(1-hydroxycyclopropyl)-1,2,4-triazol-1-yl]-2-azaspiro[3.3]heptan-2-yl]methanone] | 22.9
9 | O=C(N1CC2(CC(n3cnc(C4CC4)n3)C2)C1)N1CC2(CN(Cc3nnnn3CC(F)(F)F)C2)C1 [Example 198, [6-(3-cyclopropyl-1,2,4-triazol-1-yl)-2-azaspiro[3.3]heptan-2-yl]-[6-[[1-(2,2,2-trifluoroethyl)tetrazol-5-yl]methyl]-2,6-diazaspiro[3.3]heptan-2-yl]methanone] | 71.5
10 | Cn1nc(CN2CC3(C2)CN(C(=O)N2CC4(CC(n5cnc(C6CC6)n5)C4)C2)C3)cc1C(F)(F)F [Example 162, [6-(3-cyclopropyl-1,2,4-triazol-1-yl)-2-azaspiro[3.3]heptan-2-yl]-[6-[[1-methyl-5-(trifluoromethyl)pyrazol-3-yl]methyl]-2,6-diazaspiro[3.3]heptan-2-yl]methanone] | 5.27
11 | O=C(N1CC2(CC(Cc3nc(C(F)(F)F)ns3)C2)C1)N1CC2(CC(n3cnc(C(F)(F)F)n3)C2)C1 [Example 15, [6-[[3-(trifluoromethyl)-1,2,4-thiadiazol-5-yl]methyl]-2-azaspiro[3.3]heptan-2-yl]-[6-[3-(trifluoromethyl)-1,2,4-triazol-1-yl]-2-azaspiro[3.3]heptan-2-yl]methanone] | 2.25
12 | Cn1ncc(C(F)(F)F)c1CN1CC2(C1)CN(C(=O)N1CC3(CC(n4cnc(C(F)(F)F)n4)C3)C1)C2 [Example 158, [6-[[2-methyl-4-(trifluoromethyl)pyrazol-3-yl]methyl]-2,6-diazaspiro[3.3]heptan-2-yl]-[6-[3-(trifluoromethyl)-1,2,4-triazol-1-yl]-2-azaspiro[3.3]heptan-2-yl]methanone] | 9.26

Continued, values first:

Row | IC50 [nM] | Structure (SMILES)
13 | 102 | O=C(N1CC2(CC(n3cnc(C(F)(F)F)n3)C2)C1)N1CC2(CN(Cc3nc(C(F)(F)F)co3)C2)C1 [Example 216]
14 | 0.12 | O=C(N1CC2(CC(Cc3cc(C(F)(F)F)n[nH]3)C2)C1)N1CC2(CC(c3cc(C4CC4)n[nH]3)C2)C1 [Example 297, [6-(3-cyclopropyl-1H-pyrazol-5-yl)-2-azaspiro[3.3]heptan-2-yl]-[6-[[3-(trifluoromethyl)-1H-pyrazol-5-yl]methyl]-2-azaspiro[3.3]heptan-2-yl]methanone]
15 | 13.9 | O=C(N1CC2(CCN(Cc3cc(C(F)(F)F)no3)CC2)C1)N1CC2(CC(n3cnc(C4CC4)n3)C2)C1 [Example 329, [6-(3-cyclopropyl-1,2,4-triazol-1-yl)-2-azaspiro[3.3]heptan-2-yl]-[7-[[3-(trifluoromethyl)isoxazol-5-yl]methyl]-2,7-diazaspiro[3.5]nonan-2-yl]methanone]
16 | 0.14 | O=C(N1CC2(CC(Cc3cc(C4(C(F)(F)F)CC4)[nH]n3)C2)C1)N1CC2(CC(n3cnc(C(F)(F)F)n3)C2)C1 [Example 354]
17 | 0.12 | O=C(N1CC2(CC(Cc3cc(C(F)(F)F)n[nH]3)C2)C1)N1CC2(CC(n3cnc(C4CC4)n3)C2)C1 [Example 300, [6-(3-cyclopropyl-1,2,4-triazol-1-yl)-2-azaspiro[3.3]heptan-2-yl]-[6-[[3-(trifluoromethyl)-1H-pyrazol-5-yl]methyl]-2-azaspiro[3.3]heptan-2-yl]methanone]
18 | 1.16 | CC(C)(C)c1csc(CN2CC3(C2)CN(C(=O)N2CC4(CC(n5cnc(C(F)(F)F)n5)C4)C2)C3)n1 [Example 200, [6-[(4-tert-butylthiazol-2-yl)methyl]-2,6-diazaspiro[3.3]heptan-2-yl]-[6-[3-(trifluoromethyl)-1,2,4-triazol-1-yl]-2-azaspiro[3.3]heptan-2-yl]methanone]
19 | 0.86 | O=C(N1CC2(CC(Cc3cnn(CC(F)(F)F)c3)C2)C1)N1CC2(CC(c3cc(C4CC4)n[nH]3)C2)C1 [Example 290, [6-(3-cyclopropyl-1H-pyrazol-5-yl)-2-azaspiro[3.3]heptan-2-yl]-[6-[[1-(2,2,2-trifluoroethyl)pyrazol-4-yl]methyl]-2-azaspiro[3.3]heptan-2-yl]methanone]
20 | 96.5 | Cn1nnc(CN2CC3(C2)CN(C(=O)N2CC4(CC(n5cnc(C(F)(F)F)n5)C4)C2)C3)c1C(F)(F)F [Example 243, [6-[[1-methyl-5-(trifluoromethyl)triazol-4-yl]methyl]-2,6-diazaspiro[3.3]heptan-2-yl]-[6-[3-(trifluoromethyl)-1,2,4-triazol-1-yl]-2-azaspiro[3.3]heptan-2-yl]methanone]
21 | 2 | CC(C)(C)c1noc(CN2CC3(C2)CN(C(=O)N2CC4(CC(n5cnc(C6CC6)n5)C4)C2)C3)n1 [Example 266, [6-[(3-tert-butyl-1,2,4-oxadiazol-5-yl)methyl]-2,6-diazaspiro[3.3]heptan-2-yl]-[6-(3-cyclopropyl-1,2,4-triazol-1-yl)-2-azaspiro[3.3]heptan-2-yl]methanone]
22 | 311 | Cc1onc(C2CC2)c1CN1CC2(C1)CN(C(=O)N1CC3(CC(n4cnc(C5(O)CC5)n4)C3)C1)C2 [Example 269, [6-[(3-cyclopropyl-5-methyl-isoxazol-4-yl)methyl]-2,6-diazaspiro[3.3]heptan-2-yl]-[6-[3-(1-hydroxycyclopropyl)-1,2,4-triazol-1-yl]-2-azaspiro[3.3]heptan-2-yl]methanone]
23 | 1.1 | O=C(N1CC2(CC(Cc3nc(C4CC4)n[nH]3)C2)C1)N1CC2(CC(c3cc(C4CC4)n[nH]3)C2)C1 [Example 301, [6-(3-cyclopropyl-1H-pyrazol-5-yl)-2-azaspiro[3.3]heptan-2-yl]-[6-[(3-cyclopropyl-1H-1,2,4-triazol-5-yl)methyl]-2-azaspiro[3.3]heptan-2-yl]methanone]
24 | 149 | O=C(N1CC2(CC(n3cnc(C(F)(F)F)n3)C2)C1)N1CC2(CN(Cc3nc(CC(F)(F)F)no3)C2)C1 [Example 206]
25 | 3.74 | CC(C)(C)c1nnc(CN2CC3(C2)CN(C(=O)N2CC4(CC(n5cnc(C(F)(F)F)n5)C4)C2)C3)s1 [Example 208, [6-[(5-tert-butyl-1,3,4-thiadiazol-2-yl)methyl]-2,6-diazaspiro[3.3]heptan-2-yl]-[6-[3-(trifluoromethyl)-1,2,4-triazol-1-yl]-2-azaspiro[3.3]heptan-2-yl]methanone]
26 | 4.03 | O=C(N1CC2(CC(n3cnc(C4CC4)n3)C2)C1)N1CC2(CN(Cc3nc(C4(C(F)(F)F)CC4)no3)C2)C1 [Example 338, [6-(3-cyclopropyl-1,2,4-triazol-1-yl)-2-azaspiro[3.3]heptan-2-yl]-[6-[[3-[1-(trifluoromethyl)cyclopropyl]-1,2,4-oxadiazol-5-yl]methyl]-2,6-diazaspiro[3.3]heptan-2-yl]methanone]
27 | 9.22 | O=C(N1CC2(CC(n3cnc(C4CC4)n3)C2)C1)N1CC2(CN(Cc3cnc(C(F)F)s3)C2)C1 [Example 279, [6-(3-cyclopropyl-1,2,4-triazol-1-yl)-2-azaspiro[3.3]heptan-2-yl]-[6-[[2-(difluoromethyl)thiazol-5-yl]methyl]-2,6-diazaspiro[3.3]heptan-2-yl]methanone]

Reference: patent US20260374756A1, “HETEROCYCLIC COMPOUNDS AS INHIBITORS OF MONOACYLGLYCEROL LIPASE (MAGL)” (Hoffmann-La Roche Inc., priority 2022, published 2026)
